Earlier results, collected in patent publication US20240100168A1, “LIPID COMPOSITIONS AND METHODS OF PREPARATION THEREOF” (Wake Forest University, priority 2020, published 2024).

Tests used:
Details in all cases: blocks production of pro-inflammatory eicosanoids
COX2 = target: T1, COX2 (Homo sapiens, UniProt P35354)
T1 sequence (P35354 18-604): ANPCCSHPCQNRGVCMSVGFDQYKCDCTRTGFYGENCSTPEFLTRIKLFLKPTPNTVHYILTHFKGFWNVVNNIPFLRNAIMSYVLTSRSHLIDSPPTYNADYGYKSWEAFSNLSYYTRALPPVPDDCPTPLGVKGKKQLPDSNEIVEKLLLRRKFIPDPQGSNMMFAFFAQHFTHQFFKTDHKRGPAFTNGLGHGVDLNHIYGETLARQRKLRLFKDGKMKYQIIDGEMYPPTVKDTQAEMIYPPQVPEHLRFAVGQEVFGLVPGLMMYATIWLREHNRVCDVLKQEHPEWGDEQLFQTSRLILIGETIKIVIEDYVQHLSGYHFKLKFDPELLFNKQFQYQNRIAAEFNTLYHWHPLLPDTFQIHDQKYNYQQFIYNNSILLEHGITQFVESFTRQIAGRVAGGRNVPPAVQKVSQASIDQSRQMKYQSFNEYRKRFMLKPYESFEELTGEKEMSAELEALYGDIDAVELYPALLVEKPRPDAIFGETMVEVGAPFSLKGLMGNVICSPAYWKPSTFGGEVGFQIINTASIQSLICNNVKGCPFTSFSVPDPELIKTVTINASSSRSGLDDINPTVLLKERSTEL

lipoxygenases = test system: lipoxygenases
COX1 = COX1 (Homo sapiens, UniProt P23219)
Sequence of COX1 (P23219 24-599): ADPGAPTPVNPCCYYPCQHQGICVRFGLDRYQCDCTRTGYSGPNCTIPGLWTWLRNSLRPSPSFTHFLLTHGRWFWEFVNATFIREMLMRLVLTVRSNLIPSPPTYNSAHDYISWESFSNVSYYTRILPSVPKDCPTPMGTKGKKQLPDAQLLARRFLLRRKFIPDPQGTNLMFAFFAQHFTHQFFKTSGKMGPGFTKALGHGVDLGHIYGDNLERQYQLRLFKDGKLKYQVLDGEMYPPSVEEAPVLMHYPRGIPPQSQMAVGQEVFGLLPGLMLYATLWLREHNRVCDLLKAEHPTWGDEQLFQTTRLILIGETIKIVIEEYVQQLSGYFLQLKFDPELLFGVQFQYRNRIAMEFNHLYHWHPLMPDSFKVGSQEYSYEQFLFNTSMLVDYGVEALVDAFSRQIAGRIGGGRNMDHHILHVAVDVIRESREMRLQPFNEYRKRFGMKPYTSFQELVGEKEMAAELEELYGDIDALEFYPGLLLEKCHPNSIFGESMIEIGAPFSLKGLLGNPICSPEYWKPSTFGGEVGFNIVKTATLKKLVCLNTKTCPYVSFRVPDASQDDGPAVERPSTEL

CC/C=C\C/C=C\C/C=C\C/C=C\CCCCCCC(=O)O [ETA, 8Z,11Z,14Z,17Z-eicosatetraenoic acid]
dual inhibitor: inhibition of COX2 (COX2) | inhibition of lipoxygenases (lipoxygenases) | inhibition of COX1 (COX1)
